Assay results as given in the supplement of paper PMC10307832.

Tests used:
Experiment in all cases: relative viability (nuclei count vs DMSO), 5 days (fraction); higher = more cells survive
NCI-H2087 = system: NCI-H2087
How it was run: (§1)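 Cells from lung cancer lines were seeded into 1536-well plates and, one day later, dosed by pin tool. Treatments were either a single drug or a fixed dose of an anchor drug with five library-drug doses (not always all listed) in √10 steps. After 5 days, nuclei were stained in a one-step fixation (final 0.05% Triton X-100, 1% formaldehyde, 1 ug/ml Hoechst) and counted on 4× images, and relative viability is the treated-to-vehicle nuclei ratio, as the median of duplicate plates.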

ABC-1 = system: ABC-1
How it was run: as §1

NCI-H727 = system: NCI-H727
How it was run: as §1

H3255 = system: H3255
How it was run: as §1

NCI-H647 = system: NCI-H647
How it was run: as §1

NCI-H661 = system: NCI-H661
How it was run: as §1

NCI-H520 = system: NCI-H520
How it was run: as §1

NCI-H1650 = system: NCI-H1650
How it was run: as §1

EPLC-272H = system: EPLC-272H
How it was run: as §1

NCI-H522 = system: NCI-H522
How it was run: as §1

LCLC-103H = system: LCLC-103H
How it was run: as §1

HCC-44 = system: HCC-44
How it was run: as §1

EKVX = system: EKVX
How it was run: as §1

COR-L23 = system: COR-L23
How it was run: as §1

UMC-11 = system: UMC-11
How it was run: as §1

201T = system: 201T
How it was run: as §1

COR-L 105 = system: COR-L 105
How it was run: as §1

NCI-H1651 = system: NCI-H1651
How it was run: as §1

NCI-H358 = system: NCI-H358
How it was run: as §1

HCC-827 = system: HCC-827
How it was run: as §1

NCI-H838 = system: NCI-H838
How it was run: as §1

HCC-15 = system: HCC-15
How it was run: as §1

NCI-H1975 = system: NCI-H1975
How it was run: as §1

NCI-H1437 = system: NCI-H1437
How it was run: as §1

CCCCCCCCCCCC1=C(O)C(=O)C=C(O)C1=O [Embelin] + Cc1cc(Nc2cc(N3CCN(C)CC3)nc(Sc3ccc(NC(=O)C4CC4)cc3)n2)n[nH]1 [Tozasertib] (partner 0.1 µM)
relative viability (NCI-H2087; first compound 0.08 µM): 0.28
relative viability (NCI-H2087; first compound 0.8 µM): 0.308
relative viability (NCI-H2087; first compound 2.53 µM): 0.222
relative viability (NCI-H2087; first compound 8 µM): 0.217
relative viability (ABC-1; first compound 0.08 µM): 0.189
relative viability (ABC-1; first compound 0.8 µM): 0.166
relative viability (ABC-1; first compound 2.53 µM): 0.181
relative viability (ABC-1; first compound 8 µM): 0.148
relative viability (NCI-H727; first compound 0.08 µM): 0.552
relative viability (NCI-H727; first compound 0.8 µM): 0.565
relative viability (NCI-H727; first compound 2.53 µM): 0.634
relative viability (NCI-H727; first compound 8 µM): 0.675
relative viability (H3255; first compound 0.08 µM): 0.716
relative viability (H3255; first compound 0.8 µM): 0.595
relative viability (H3255; first compound 2.53 µM): 0.812
relative viability (H3255; first compound 8 µM): 0.851
relative viability (NCI-H647; first compound 0.08 µM): 0.361
relative viability (NCI-H647; first compound 0.8 µM): 0.26
relative viability (NCI-H647; first compound 2.53 µM): 0.288
relative viability (NCI-H647; first compound 8 µM): 0.245
relative viability (NCI-H661; first compound 0.08 µM): 0.366
relative viability (NCI-H661; first compound 0.8 µM): 0.34
relative viability (NCI-H661; first compound 2.53 µM): 0.318
relative viability (NCI-H661; first compound 8 µM): 0.337
relative viability (NCI-H520; first compound 0.08 µM): 0.56
relative viability (NCI-H520; first compound 0.8 µM): 0.459
relative viability (NCI-H520; first compound 2.53 µM): 0.467
relative viability (NCI-H520; first compound 8 µM): 0.376
relative viability (NCI-H1650; first compound 0.08 µM): 0.396
relative viability (NCI-H1650; first compound 0.8 µM): 0.452
relative viability (NCI-H1650; first compound 2.53 µM): 0.399
relative viability (NCI-H1650; first compound 8 µM): 0.462
relative viability (EPLC-272H; first compound 0.08 µM): 0.213
relative viability (EPLC-272H; first compound 0.8 µM): 0.182
relative viability (EPLC-272H; first compound 2.53 µM): 0.277
relative viability (EPLC-272H; first compound 8 µM): 0.22
relative viability (NCI-H522; first compound 0.08 µM): 0.617
relative viability (NCI-H522; first compound 0.8 µM): 0.577
relative viability (NCI-H522; first compound 2.53 µM): 0.513
relative viability (NCI-H522; first compound 8 µM): 0.532
relative viability (LCLC-103H; first compound 0.08 µM): 0.549
relative viability (LCLC-103H; first compound 0.8 µM): 0.557
relative viability (LCLC-103H; first compound 2.53 µM): 0.508
relative viability (LCLC-103H; first compound 8 µM): 0.501
relative viability (HCC-44; first compound 0.08 µM): 1.03
relative viability (HCC-44; first compound 0.8 µM): 1.12
relative viability (HCC-44; first compound 2.53 µM): 0.814
relative viability (HCC-44; first compound 8 µM): 0.836
relative viability (EKVX; first compound 0.08 µM): 0.387
relative viability (EKVX; first compound 0.8 µM): 0.381
relative viability (EKVX; first compound 2.53 µM): 0.412
relative viability (EKVX; first compound 8 µM): 0.417
relative viability (COR-L23; first compound 0.08 µM): 0.191
relative viability (COR-L23; first compound 0.8 µM): 0.253
relative viability (COR-L23; first compound 2.53 µM): 0.233
relative viability (COR-L23; first compound 8 µM): 0.19
relative viability (UMC-11; first compound 0.08 µM): 0.211
relative viability (UMC-11; first compound 0.8 µM): 0.199
relative viability (UMC-11; first compound 2.53 µM): 0.184
relative viability (UMC-11; first compound 8 µM): 0.192
relative viability (201T; first compound 0.08 µM): 0.934
relative viability (201T; first compound 0.8 µM): 0.963
relative viability (201T; first compound 2.53 µM): 0.94
relative viability (201T; first compound 8 µM): 1.06
relative viability (COR-L 105; first compound 0.08 µM): 0.363
relative viability (COR-L 105; first compound 0.8 µM): 0.386
relative viability (COR-L 105; first compound 2.53 µM): 0.367
relative viability (COR-L 105; first compound 8 µM): 0.35
relative viability (NCI-H1651; first compound 0.08 µM): 0.677
relative viability (NCI-H1651; first compound 0.8 µM): 0.657
relative viability (NCI-H1651; first compound 2.53 µM): 0.723
relative viability (NCI-H1651; first compound 8 µM): 0.807
relative viability (NCI-H358; first compound 0.08 µM): 0.116
relative viability (NCI-H358; first compound 0.8 µM): 0.0994
relative viability (NCI-H358; first compound 2.53 µM): 0.108
relative viability (NCI-H358; first compound 8 µM): 0.106
relative viability (HCC-827; first compound 0.08 µM): 0.428
relative viability (HCC-827; first compound 0.8 µM): 0.447
relative viability (HCC-827; first compound 2.53 µM): 0.419
relative viability (HCC-827; first compound 8 µM): 0.424
relative viability (NCI-H838; first compound 0.08 µM): 0.298
relative viability (NCI-H838; first compound 0.8 µM): 0.272
relative viability (NCI-H838; first compound 2.53 µM): 0.282
relative viability (NCI-H838; first compound 8 µM): 0.295
relative viability (HCC-15; first compound 0.08 µM): 0.412
relative viability (HCC-15; first compound 0.8 µM): 0.486
relative viability (HCC-15; first compound 2.53 µM): 0.55
relative viability (HCC-15; first compound 8 µM): 0.401
relative viability (NCI-H1975; first compound 0.08 µM): 0.901
relative viability (NCI-H1975; first compound 0.8 µM): 0.745
relative viability (NCI-H1975; first compound 2.53 µM): 0.683
relative viability (NCI-H1975; first compound 8 µM): 0.839
relative viability (NCI-H1437; first compound 0.08 µM): 0.41
relative viability (NCI-H1437; first compound 0.8 µM): 0.417
relative viability (NCI-H1437; first compound 2.53 µM): 0.457
relative viability (NCI-H1437; first compound 8 µM): 0.448
